A short description of data set [1]: Tissue distribution in mice. The class given is in vivo. As to conditions: ICR mice, 30 mg/kg oral, n = 3. The method, then: In addition, tissue distribution of 17a was investigated. 17a was orally administered to mice at 30 mg/kg, and 2 was administrated as a positive control (Figure 5). […] Significant activity of 17a in the OLTT appeared to result from high concentration in the small intestine, even though bioavailability of 17a was not great in mice.
Figure 5. Tissue distribution of 17a in mice. 17a and 2 were orally administered to ICR mice at 30 mg/kg (n = 3). (a) AUC values of 17a and 2 in indicated tissues. […] Data represent mean value. (b) Tissue-to-plasma (T/P) ratio of 17a and 2. S.I.: small intestine, L.I.: large intestine.

Another data set has as its target T1, hDGAT2 (Homo sapiens, UniProt Q96PD7).
T1 sequence (Q96PD7 1-388): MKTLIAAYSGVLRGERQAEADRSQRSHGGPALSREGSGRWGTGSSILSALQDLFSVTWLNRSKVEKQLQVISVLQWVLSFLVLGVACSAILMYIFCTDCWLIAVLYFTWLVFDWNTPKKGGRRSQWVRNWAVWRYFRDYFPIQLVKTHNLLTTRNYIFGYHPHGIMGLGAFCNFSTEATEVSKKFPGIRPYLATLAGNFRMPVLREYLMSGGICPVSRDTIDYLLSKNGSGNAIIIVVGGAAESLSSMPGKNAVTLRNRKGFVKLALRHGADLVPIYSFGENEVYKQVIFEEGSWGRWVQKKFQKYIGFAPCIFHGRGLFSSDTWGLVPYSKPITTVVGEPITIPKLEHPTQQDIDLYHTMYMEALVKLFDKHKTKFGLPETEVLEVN
The experiment in a line: Enzymatic assay hDGAT2. In kind it is biochemical. The source says:
(§1) ACATs have sequence homology to DGAT-1 and play essential roles in cholesterol homeostasis. 17b was not explored in the enzymatic assays due to its poor pharmacokinetic profile.

For data set [2], the target named is T2, human recombinant DGAT1 enzyme expressed in insect cells (SF9 cells) (Homo sapiens, UniProt O75907).
T2 construct: made in house; host or cells: SF9 insect cells (microsomal membrane fraction)
T2 sequence (O75907 1-488): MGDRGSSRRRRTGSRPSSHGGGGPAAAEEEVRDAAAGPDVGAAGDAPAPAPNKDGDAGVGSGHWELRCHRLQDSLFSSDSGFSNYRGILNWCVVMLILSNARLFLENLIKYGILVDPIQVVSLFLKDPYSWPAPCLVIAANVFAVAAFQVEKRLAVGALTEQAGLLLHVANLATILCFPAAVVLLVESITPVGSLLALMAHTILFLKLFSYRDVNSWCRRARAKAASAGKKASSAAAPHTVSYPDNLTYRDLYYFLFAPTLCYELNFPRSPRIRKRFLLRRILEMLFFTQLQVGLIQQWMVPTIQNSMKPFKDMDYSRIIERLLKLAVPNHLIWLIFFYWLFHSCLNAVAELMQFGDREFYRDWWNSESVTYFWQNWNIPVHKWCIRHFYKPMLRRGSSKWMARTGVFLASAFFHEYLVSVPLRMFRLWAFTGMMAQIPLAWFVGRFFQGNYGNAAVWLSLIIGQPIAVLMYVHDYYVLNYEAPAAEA
The experiment in a line: DGAT-1 inhibition assay (IC50), SF9 microsomes. The class given is biochemical. As to conditions: SF9 insect cells expressing human DGAT-1. The method, then: The activity of DGAT-1 inhibitors in vitro was evaluated by using a human recombinant DGAT1 enzyme expressed in insect cells (SF9 cells). SF9 cells were homogenised by washing them with DPBS (Dulbecco’s phosphate-buffered saline) and then suspending cell pellets with a tris buffer (250 mM sucrose; 10 mM Tris-HCl [pH 7.4]; proteinase inhibitor). The resulting mixture was centrifugally separated at 10,000 × g for 30 min to remove the cell debris remaining in the lower layer thereof, and was centrifugally separated at 100,000 × g for 60 min to obtain a microsomal membrane. Further, membrane fractions were resuspended by the tris buffer, and then stored at -80 °C.
The activity of DGAT1 was measured according to the reported method. Specifically, 0.0001 – 10 μΜ (final concentration, FC) of the test compounds were cultured at room temperature (25 °C) for 15 min with a […] of SF9 microsomal protein solution and 100 mM of MgCl2 solution, and were then further cultured at room temperature (25 °C) for 30 min after the addition of 100 μΜ (FC in 12.5% EtOH) of 1,2-dioleyl-sn-glycerol and 30 μΜ (final conc.) of [14]C-oleyl coenzyme A. The reaction was completed by the addition of 300 μL of a mixed solution of 2-propanol/heptane (7:1), and radioactive triglyceride was separated from an organic solvent layer by using 200 μL of heptane and 200 μL of a 0.1 M carbonate buffer (pH 9.5). The amount of triglyceride was measured by liquid scintillography (Perkin Elmer, USA) after mixing with an organic solvent and an equivalent amount of scintillation solvent (MicroScint-O, Perkin Elmer, USA). The effects of inhibiting DGAT1 were calculated as percent in comparison with a control material.
The activities of synthesised compounds were evaluated using SF9 insect cells expressing human DGAT-1[22]. A potent DGAT-1 inhibitor, LCQ-908 (2 or pradigastat) was used as a positive control. […] The calculated lowest energy conformation model of 14c provided that the distance between the terminal carboxylic acid and NH of urea was over 16 Å, which may result in reduced activity. […]

The next data set addresses T3, hACAT1 (Homo sapiens, UniProt P35610).
T3 sequence (P35610 1-550): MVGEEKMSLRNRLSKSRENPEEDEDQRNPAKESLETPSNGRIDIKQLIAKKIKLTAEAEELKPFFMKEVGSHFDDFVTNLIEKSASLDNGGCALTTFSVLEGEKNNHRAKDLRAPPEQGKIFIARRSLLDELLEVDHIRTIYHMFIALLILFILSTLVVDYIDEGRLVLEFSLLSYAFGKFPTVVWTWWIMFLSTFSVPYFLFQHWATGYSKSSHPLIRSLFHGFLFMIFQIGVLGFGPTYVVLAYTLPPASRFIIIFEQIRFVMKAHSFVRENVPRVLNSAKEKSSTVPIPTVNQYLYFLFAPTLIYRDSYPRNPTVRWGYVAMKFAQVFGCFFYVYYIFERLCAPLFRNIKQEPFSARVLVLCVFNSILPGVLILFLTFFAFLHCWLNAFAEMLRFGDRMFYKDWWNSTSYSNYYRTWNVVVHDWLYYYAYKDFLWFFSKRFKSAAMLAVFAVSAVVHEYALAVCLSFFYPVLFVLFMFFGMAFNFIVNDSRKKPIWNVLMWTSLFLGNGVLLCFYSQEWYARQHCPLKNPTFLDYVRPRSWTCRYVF
The experiment in a line: Enzymatic assay hACAT1. The class given is biochemical.
Excerpt: as §1

Another data set deals with T4, hACAT2 (Homo sapiens, UniProt O75908).
T4 sequence (O75908 1-522): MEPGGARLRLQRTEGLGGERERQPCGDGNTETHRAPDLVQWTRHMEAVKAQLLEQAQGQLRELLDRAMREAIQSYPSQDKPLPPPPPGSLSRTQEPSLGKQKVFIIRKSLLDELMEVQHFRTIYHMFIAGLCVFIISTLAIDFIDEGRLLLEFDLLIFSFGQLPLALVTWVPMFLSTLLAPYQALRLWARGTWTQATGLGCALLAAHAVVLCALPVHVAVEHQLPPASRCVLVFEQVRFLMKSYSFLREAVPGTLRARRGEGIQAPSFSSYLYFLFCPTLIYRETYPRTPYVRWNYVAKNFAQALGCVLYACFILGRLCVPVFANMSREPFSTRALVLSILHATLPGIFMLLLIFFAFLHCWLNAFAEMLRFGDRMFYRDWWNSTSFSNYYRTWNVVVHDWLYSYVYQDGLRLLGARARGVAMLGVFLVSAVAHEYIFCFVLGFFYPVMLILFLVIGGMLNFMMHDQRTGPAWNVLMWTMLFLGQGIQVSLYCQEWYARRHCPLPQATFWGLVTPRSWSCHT
The experiment in a line: Enzymatic assay hACAT2. The class given is biochemical.
Excerpt: as §1

The target of the next data set is T5, hDGAT1 (Homo sapiens, UniProt O75907).
T5 sequence (O75907 1-488): T2 sequence (O75907 1-488)
The experiment in a line: Enzymatic assay hDGAT1. The class given is biochemical.
Excerpt: as §1

The nature of data set [3]: Pharmacokinetic profile in ICR mice. As to conditions: mouse, in vivo.

What is called IC50 is the concentration needed to halve the response being measured. A word on the bioavailability: it is the share of a dose that reaches the circulation, judged against a reference dose that is usually intravenous. Lower therefore signals little systemic uptake. In general, Cmax refers to the maximum level reached in the sampled fluid or tissue. As a reminder, the half-life is how long it takes for the measured level to halve. A lower half-life goes with fast loss. For orientation: AUC means concentration integrated over time.

Bounds are passed on as bounds.

Regarding `O=C(O)C[C@H]1CC[C@H](c2ccc(-c3ccc(Nc4ccc(C(F)(F)F)nc4)cn3)cc2)CC1` [Compound 2, pradigastat, reference compound], the “Tissue distribution (concentration levels in tissues)” value in data set [1] is “much high concentrations in the liver and large intestine”. In addition, the IC50 is greater than 10 µM on hDGAT2; 157 nM in data set [2]; greater than 10 µM against hACAT1; greater than 10 µM against hACAT2; 57 nM at hDGAT1.
`O=C([O-])C[C@H]1CC[C@H](c2csc3c(-c4ccc(NC(=O)Nc5cccc(Cl)c5)cc4)ncnc32)CC1.[Na+]` [Compound 17b, Sodium trans-2–(4–(4-(4-(3–(3-chlorophenyl)ureido)phenyl)thieno[3,2-d]pyrimidin-7-yl)cyclohexyl)acetate]: in data set [2], the IC50 worked out at 89 nM. This compound had a bioavailability in data set [3] (oral 10 mg/kg vs iv 3 mg/kg) of 0.7%. In data set [3] (oral 10 mg/kg, n = 3), the highest level (Cmax) was 74.8 ng/mL and the half-life is 312 min. Further, the AUC in data set [3] (oral 10 mg/kg, n = 3, read-out: AUC 0∼24) stood at 234 ng·h/mL.

For the origin of these results see PMC6882492, “Synthesis and biological evaluation of novel thienopyrimidine derivatives as diacylglycerol acyltransferase 1 (DGAT-1) inhibitors” (Journal of Enzyme Inhibition and Medicinal Chemistry, 2019).
